# Tests used:
# [1] = species: Rattus norvegicus; experiment: GTP shift was determined in rat; assay type: functional
# [2] = target: T1, Adenosine receptor A1 (Rattus norvegicus, UniProt P25099)
# T1 sequence (P25099 whole entry): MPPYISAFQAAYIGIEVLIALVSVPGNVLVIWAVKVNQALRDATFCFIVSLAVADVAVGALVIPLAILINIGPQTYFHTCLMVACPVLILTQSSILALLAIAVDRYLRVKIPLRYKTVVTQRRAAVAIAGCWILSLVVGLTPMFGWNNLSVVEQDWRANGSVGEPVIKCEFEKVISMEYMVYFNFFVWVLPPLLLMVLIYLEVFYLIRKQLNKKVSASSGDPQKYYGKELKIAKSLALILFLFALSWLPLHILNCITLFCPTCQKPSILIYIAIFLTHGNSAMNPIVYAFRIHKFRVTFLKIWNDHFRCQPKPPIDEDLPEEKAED
# Description: Affinity for the Adenosine A1 receptor in the presence of GTP (A1+GTP) by using [3H]-DPCPX as radioligand
# [3] = target: T1, Adenosine receptor A1; remark: listed apart in the source
# Description: Affinity for the Adenosine A1 receptor in the absence of GTP (A1-GTP) by using [3H]DPCPX as radioligand
# [4] = target: Adenosine receptor A2a (Rattus norvegicus, UniProt P30543); experiment: Binding affinity against Adenosine A2A receptor by using [3H]CGS-21680 as radioligand
# Chain of Adenosine receptor A2a (P30543 whole entry): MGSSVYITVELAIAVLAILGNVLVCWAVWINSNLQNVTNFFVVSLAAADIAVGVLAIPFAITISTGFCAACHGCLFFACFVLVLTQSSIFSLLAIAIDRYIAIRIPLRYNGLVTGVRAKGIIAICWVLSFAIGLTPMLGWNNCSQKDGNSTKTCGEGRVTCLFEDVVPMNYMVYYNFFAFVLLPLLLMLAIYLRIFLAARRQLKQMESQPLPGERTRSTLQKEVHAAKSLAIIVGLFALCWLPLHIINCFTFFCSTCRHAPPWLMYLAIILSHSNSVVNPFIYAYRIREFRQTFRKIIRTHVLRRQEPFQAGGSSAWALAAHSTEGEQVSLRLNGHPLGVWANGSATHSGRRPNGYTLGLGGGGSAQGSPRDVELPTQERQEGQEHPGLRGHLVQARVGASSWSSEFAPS
Ki [2] [µM],Ki [3] [µM],% radioligand bound [4] [%],Ki [4] [µM],SMILES,GTP shift [1]
,,91,,C[C@@H](Cc1ccccc1)Nc1ncnc2c1ncn2C1CC(O)C(CO)O1 (stereo partly specified),
1.01,0.35,,7.36,C[C@H](Cc1ccccc1)Nc1ncnc2c1ncn2[C@@H]1O[C@H](CO)C[C@H]1O,2.9
0.47,0.11,,18.6,OC[C@@H]1C[C@@H](O)[C@H](n2cnc3c(NC4CCCC4)ncnc32)O1,4.3
17.5,8.26,,57.2,C[C@@H](Cc1ccccc1)Nc1ncnc2c1ncn2[C@@H]1O[C@H](CO)C[C@H]1O,2.1

# The next lines start with the molecule.
SMILES,Ki [2] [µM],Ki [3] [µM],% radioligand bound [4] [%],Ki [4] [µM],GTP shift [1]
C[C@H](Cc1ccccc1)Nc1ncnc2c1ncn2C1CC(O)C(CO)O1 (stereo partly specified),14.4,8.45,86,,1.7
C[C@H]1OC(n2cnc3c(NC4CCCC4)ncnc32)[C@H](O)[C@@H]1O (stereo partly specified),0.45,0.07,,10.1,6.4
OC[C@H]1O[C@@H](n2cnc3c(NC4CCCCC4)ncnc32)C[C@@H]1O,22.8,8.94,90,,2.6
OC[C@H]1O[C@@H](n2cnc3c(NC4CCCC4)ncnc32)C[C@@H]1O,7.6,1.87,88,,4.1
OC[C@@H]1C[C@@H](O)[C@H](n2cnc3c(NC4CCCCC4)ncnc32)O1,1.26,0.31,,22.1,4.1
C[C@H](Cc1ccccc1)Nc1ncnc2c1ncn2C1O[C@H](C)[C@@H](O)[C@H]1O (stereo partly specified),1.07,0.3,,3.67,3.6
Cn1cnc2c(N)ncnc21,14.7,12.5,,8.6,1.2
C[C@H]1O[C@@H](n2cnc3c(N)ncnc32)[C@H](O)[C@@H]1O [5'-Deoxyadenosine],12.1,1.82,,,6.6
Nc1ncnc2c1ncn2[C@@H]1O[C@H](CO)C[C@H]1O [CORDYCEPIN],,,,,2.1
OC[C@H]1O[C@@H](n2cnc3c(NC4CCCC4)ncnc32)[C@H](O)[C@@H]1O [N6-CYCLOPENTYLADENOSINE],,,,0.58,

# Source: ChEMBL document CHEMBL1128455, “Ribose-modified adenosine analogues as potential partial agonists for the adenosine receptor” (J Med Chem, 1995)
